Results from patent US20240108740A1, “THERAPEUTIC COMPOSITIONS INCLUDING SPN10 AND USES THEREOF” (Stealth BioTherapeutics Inc., priority 2022, published 2024).
Residues, ends and D or L forms follow the SMILES beside them.

Key:
[1] = Example 17: linoleic acid peroxidation induced by ABAP; type: biochemical
Description: Linoleic acid peroxidation will be induced using the water-soluble initiator 2,2′-azobis(2-amidinopropane) (ABAP), and lipid peroxidation will be detected by the formation of conjugated dienes, monitored spectrophotometrically at 236 nm (E. Longoni, W. A. Pryor, P. Marchiafava, Biochem. Biophys. Res. Commun. 233, 778-780 (1997)).
5 mL of 0.5 M ABAP and varying concentrations of peptide conjugates; aromatic-cationic peptides (an equivalent molar dose of aromatic-cationic peptide based on the concentration of the aromatic-cationic peptide administered in the peptide conjugate treatment group); SPN10(s) (an equivalent molar dose of SPN10 based on the concentration of SPN10 administered in the peptide conjugate treatment group); or SPN10(s) in combination with aromatic-cationic peptides (e.g., an equivalent molar dose of SPN10 based on the concentration of SPN10 administered in the peptide conjugate treatment group and an equivalent molar dose of aromatic-cationic peptide based on the concentration of aromatic-cationic peptide administered in the peptide conjugate treatment group) will be incubated in 2.4 mL linoleic acid suspension until autoxidation rate becomes constant.

[2] = system: isolated mouse liver mitochondria; experiment: Example 20: spontaneous and antimycin-induced H2O2 production by isolated mitochondria
Description: Livers will be harvested from mice, homogenized in ice-cold buffer, and centrifuged at 13800×g for 10 min. The pellet will be washed once, re-suspended in 0.3 mL of wash buffer, and placed on ice until use. H2O2 will be measured using luminol chemiluminescence as described previously (Li, et al., Biochim. Biophys. Acta 1428, 1-12 (1999). 0.1 mg mitochondrial protein will be added to 0.5 mL potassium phosphate buffer (100 mM, pH 8.0) in the presence of vehicle, peptide conjugates, aromatic-cationic peptides, or SPN10(s) with or without aromatic-cationic peptides. 25 mM luminol and 0.7 IU horseradish peroxidase will be added, and chemiluminescence will be monitored with a Chronolog Model 560 aggregometer (Havertown, PA) for 20 minutes at 37° C. The amount of H2O2 produced will be quantified as the area under the curve (AUC) over 20 min, and all data will be normalized to AUC produced by mitochondria alone.

[3] = system: neuronal N2A cells; experiment: Example 21: intracellular ROS and cell survival after t-BHP; type: cell-based; details: t-BHP 0.5 or 1 mM, 40 min; then 4 hours
Description: Cells will be washed twice and incubated in medium alone or medium containing varying concentrations of peptide conjugates, aromatic-cationic peptides or SPN10(s) with or without aromatic-cationic peptides for 4 hours. Intracellular ROS will be measured using carboxy-H2DCFDA (Molecular Probes, Portland, OR, U.S.A.). Cell death will be measured using an MTS cell proliferation assay (Promega, Madison, WI).

[4] = system: SN-4741 cells; experiment: Example 31: MPP^+ toxicity (Hoechst 33342); type: cell-based; details: 50 μM MPP^+, 48 hours
Description: SN-4741 cells will be treated with buffer; 50 μM MPP^+; 50 μM MPP^+ and peptide conjugates; 50 μM MPP^+ and aromatic-cationic peptides; or 50 μM MPP^+ and SPN10(s); or 50 μM MPP^+ and SPN10(s) with aromatic-cationic peptides for 48 hours. Apoptosis will be measured by fluorescent microscopy with Hoechst 33342.

[5] = system: Sprague-Dawley rats; experiment: Example 38: acute renal injury caused by unilateral ureteral obstruction (UUO); type: in vivo, rat
Description: Sprague-Dawley rats will undergo unilateral ureteral ligation with a 4-0 silk suture through a midline abdominal incision under sterile conditions. Ureteral obstruction will be carried out by ligating the lower end of the left ureter, just above the ureterovesical junction. Peptide conjugates (1 mg/kg or 3 mg/kg; n=16); aromatic-cationic peptides (an equivalent molar dose of aromatic-cationic peptide based on the concentration of the aromatic-cationic peptide administered in the peptide conjugate treatment group); SPN10(s) (an equivalent molar dose of SPN10 based on the concentration of SPN10 administered in the peptide conjugate treatment group); SPN10(s) in combination with aromatic-cationic peptides (e.g., an equivalent molar dose of SPN10 based on the concentration of SPN10 administered in the peptide conjugate treatment group and an equivalent molar dose of aromatic-cationic peptide based on the concentration of aromatic-cationic peptide administered in the peptide conjugate treatment group); or control vehicle (n=16) will be administered intraperitoneally, one day prior to UUO and continuing for 14 days following UUO.
Renal Histology: Trichrome sections of paraffin embedded specimens will be examined by a board-certified pathologist (SVS, renal pathology specialist), and fibrosis scored on a scale of 0—+++.
Immunohistochemical Analysis: Immunohistochemical staining for macrophages will be carried out using a monoclonal antibody to ED-1 as previously described. Macrophages will be counted in 10 high-power fields (×400) by two independent investigators in a blinded fashion. Apoptosis will be measured by TUNEL assay as described in Example 37. The presence of fibroblasts will be examined using immunohistochemistry, as described above, using the DAKO #S100-A4 antibody (1:100 dilution). Antigen will be retrieved by incubating cells with Proteinase K for 20 minutes. The remaining immunoperoxidase protocol will be carried out according to routine procedures.
It is expected that S100-A4 staining will be present in spindle-shaped interstitial cells and round, inflammatory cells. Only spindle-shaped cells will be quantified. Staining for 8-OH dG will be done using Proteinase K for antigen retrieval and an antibody provided by the Japan Institute Control of Aging at a dilution of 1:200-1:500.
Polymerase Chain Reaction Analysis: Renal expression of heme oxygenase-1 (HO-1) will be measured by RT-PCR according to the following: Rat kidneys will be harvested and stored at −80° C. until use. Total RNA will be extracted using the Trizol (R)-Chloroform extraction procedure, and mRNA will be purified using the Oligotex mRNA extraction kit (Qiagen, Valencia, California, U.S.A.) according to manufacturer instructions. mRNA concentration and purity will be determined by measuring absorbance at 260 nm. RT-PCR will be performed using Qiagen One-step PCR kit (Qiagen, Valencia, California, U.S.A.) and an automated thermal cycler (ThermoHybrid, PX2). Thermal cycling will be carried out as follows: initial activation step for 15 minutes at 95° C. followed by 35 cycles of denaturation for 45 seconds at 94° C., annealing for 30 seconds at 60° C., extension for 60 seconds at 72° C. Amplification products will be separated on a 2% agarose gel electrophoresis, visualized by ethidium bromide staining, and quantified using Image J densitometric analysis software. GAPDH will be used as an internal control.

## N=C(N)NCCC[C@H](NC(=O)[C@@H](N)Cc1c[nH]c2ccccc12)C(=O)N[C@@H](Cc1c[nH]c2ccccc12)C(=O)N[C@@H](CCCCN)C(N)=O [SPN10, H-L-Trp-L-Arg-L-Trp-L-Lys-NH2] (H-WRWK-NH2)
[1]
  peroxidation of linoleic acid: dose-dependently inhibit the peroxidation of linoleic acid
[2]
  spontaneous production of H2O2: dose-dependently reduce the spontaneous production of H2O2
[2]; antimycin
  production of H2O2 induced by antimycin: dose-dependently reduce the production of H2O2 induced by antimycin
[3]
  cell survival (MTS): increase cell survival
  intracellular ROS (carboxy-H2DCFDA): dose-dependently reduce intracellular ROS
[4]
  number of apoptotic cells after MPP^+: reduce the number of apoptotic cells
[5]; 1 mg/kg
  tubular cell proliferation at the 1 mg/kg dose: decreased
[5]; 1 mg/kg (conjugate) or equivalent molar dose
  fibroblast infiltration in obstructed kidneys (FSP-1): significantly decrease the amount of fibroblast infiltration
[5]; 1 mg/kg (conjugate) or equivalent molar dose, 2 weeks of UUO
  tubular apoptosis in obstructed kidneys: significantly decrease tubular apoptosis
[5]; 1 mg/kg or 3 mg/kg (conjugate) or equivalent molar dose
  macrophage infiltration in obstructed kidneys: significantly decrease macrophage infiltration
[5]; 3 mg/kg
  tubular cell proliferation at the 3 mg/kg dose: further decreased
[5]; 14 days UUO
  trichrome staining (fibrosis score), cortex of obstructed kidney: 0-trace
  trichrome staining (fibrosis score), medulla of obstructed kidney: tr—1+
[5]; RT-PCR
  HO-1 expression in the obstructed kidney: decrease HO-1 expression
[5]; rat, in vivo
  medullary fibrosis: decrease medullary fibrosis
  number of 8-OH dG positive cells: significantly reduced
  renal tubular proliferation in obstructed kidneys (PCNA): significant decrease in renal tubular proliferation
